In assay [1] the test system is CCL2. Description: Mouse CCL2 assay in MLE12 cells. The conditions noted are these: MLE12 cells, TNF-α 20 ng/ml, supernatant after 30 hours, HTRF, read-out: CCL2 (EC50). It is filed as cell-based. The text has this: Cisbio mouse CCL2 assay is intended for the quantitative measurement of CCL2 in supernatant using HTRF® technology. The assay is compatible with mouse samples, and is highly specific for CCL2. CCL2 is detected in a sandwich assay format using 2 different specific antibodies, one labeled with Cryptate (donor) and the second with d2 (acceptor). The detection principle is based on HTRF® technology. When the labelled antibodies bind to the same antigen, the excitation of the donor with a light source (laser or flash lamp) triggers a Fluorescence Resonance Energy Transfer (FRET) towards the acceptor, which in turn fluoresces at a specific wavelength (665 nm). The two antibodies bind to the CCL2 present in the sample, thereby generating FRET. Signal intensity is proportional to the number of antigen-antibody complexes formed and therefore to the CCL2 concentration. • Materials: • Cells: MLE12 (Mouse Lung Epithelial cells, SV40 transformed) • Medium: DMEM/F12 (Gibco #11330057), FBS 5% (Gibco #10500064), Pen/Strep 50 U/50 μg/ml (Gibco #15070063) • Cell plates: 384-well, black/clear, TC-treated (Corning #3764) • Source plate: Labcyte LDV 384 (Labcyte #LP-0200) • Compound dilution plate: V-bottom 384-well PP plate (Greiner #781280) • Compounds: 10 mM stocks in DMSO • HTRF plates: 384-well, white, half area, non-binding (Costar #3824) • Mouse CCL2 kit: Cisbio 62MCCL2PEH • Other reagents: Trypsin/EDTA 10× (Gibco #15400054), PBS (Gibco #14190169), Resazurin (Sigma-Aldrich #199303), 1 mg/ml in PBS, TNF-α 200 μg/ml in PBS (Peprotech #300-01A) • Instruments: • Echo liquid handler (Labcyte) • Multidrop Combi (Thermo Scientific) • Sense plate reader (Hidex) Compound Handling:
(§1) Stock solutions (10 mM in DMSO) of compounds were dispensed in V-bottom 384-well plates and the following dilutions were prepared: 10 mM and 0.05 mM. The dilutions were transferred to the source plate. Duplicate 6 points dose-response curves of compounds were nano-dispensed in cell plates (CCL2 assay) and in parallel, 11 points DR curves in duplicates were nano-dispensed for the viability assay. The plates were heat sealed and kept at RT until use.
(§2) MLE12 cells in flasks were washed once with PBS, detached with Trypsin/EDTA, resuspended in fresh medium and counted. Cells were diluted to 3×10^5 cells/ml and seeded with Multidrop Combi in cell plates pre-dispensed with compounds, 25 μl/well (7500 cells/well). The plates were placed, one by one, in a CO2-incubator at 37° C. for 1 hour after which 25 μl/well of TNF-α (final concentration 20 ng/ml) were added. The plates were transferred back to the CO2-incubator placed in a plastic box with wet tissue in the bottom, to avoid evaporation, for 30 hours.
After 30 hours incubation, the plates were spun down 5 minutes at 400 g, and 16 μl/well of the supernatants were transferred to the assay plate. A mCCL2 standard curve was prepared according to the kit protocol and 16 μl/well of the standards were also added to the assay plate.
The anti-CCL2 antibody mix was prepared according to the kit protocol, and 4 μl/well were added to the assay plate. The plate was sealed and incubated over night at RT. After incubation the plate was read in Sense plate reader with Time-resolved FRET protocol (Ex330 nm/Em 620 and 665 nm). After data reduction, the delta ratios were imported to an excel template where the IC50 values were calculated.

The subject of assay [2] is MLE12 cells. Description: Cell viability assay in MLE12 cells (resazurin). It is filed as cell-based, mouse. The conditions noted are these: TNF-α 20 ng/ml, resazurin added after 24 hours culture. As for the experimental part:
as §1, §2
After 24 hours culture, resazurin reagent (stock 1 mg/ml in PBS) diluted 1:17 in PBS was added with Multidrop Combi, 10 μl/well, and plates were incubated for 6 hours. Plates were read in Sense plate reader with resorufin protocol (ex544 nm/em595 nm). The results were imported to an excel template where the EC50 values were calculated using XLfit.

Assay [3] concerns the target OGG1 (Homo sapiens (Human), UniProt O15527). Kind of assay: In vitro OGG1 activity assay. It is filed as biochemical. To be noted: 800 pM OGG1 enzyme, 2 nM human APEX1, 10 nM 8-oxoA:C substrate. In short, it runs like this:
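Read-out is fluorescein fluorescence, with compounds in DMSO added first, then enzyme and substrate. OGG1 excises its substrate base from a quenched fluorophore-labelled duplex, and surplus APEX1 cuts the resulting apurinic site. The duplex then melts and fluorescence rises in proportion to glycosylase activity.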

Like-named read-outs stand apart in the source and are kept apart here.

Sequence of OGG1 (O15527 whole entry): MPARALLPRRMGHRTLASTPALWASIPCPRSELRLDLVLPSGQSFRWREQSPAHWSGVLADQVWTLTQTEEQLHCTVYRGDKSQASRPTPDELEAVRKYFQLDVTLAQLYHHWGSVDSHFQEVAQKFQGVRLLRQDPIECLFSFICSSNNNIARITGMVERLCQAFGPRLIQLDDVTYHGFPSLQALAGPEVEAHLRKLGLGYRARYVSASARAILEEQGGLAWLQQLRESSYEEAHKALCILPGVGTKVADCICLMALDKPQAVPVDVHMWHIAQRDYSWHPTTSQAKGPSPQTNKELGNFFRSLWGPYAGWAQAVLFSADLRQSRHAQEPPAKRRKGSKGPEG

For the molecule `COc1ccc(NC(=O)[C@H]2CC[C@@H](n3c(=O)[nH]c4c(Br)cccc43)CC2)cc1F` [Example 164, (Cis)-4-(4-bromo-2-oxo-2,3-dihydro-1H-1,3-benzodiazol-1-yl)-N-(3-fluoro-4-methoxyphenyl)cyclohexane-1-carboxamide], in assay [1] (Mus musculus, MLE12, 30 h), the EC50 is 33.9 µM. The IC50 is 12.9 µM in assay [2] (Mus musculus, MLE12, 24 h) and 0.043 µM in assay [3].
For the molecule `COc1cc(NC(=O)[C@H]2CC[C@@H](n3c(=O)[nH]c4c(C(=O)NCCN(C)C)cccc43)CC2)ccc1C` [Example 228, N-[2-(Dimethylamino)ethyl]-2-oxo-1-[cis-4-[(3-methoxy-4-methylphenyl)carbamoyl]cyclohexyl]-2,3-dihydro-1H-1,3-benzodiazole-4-carboxamide], the EC50 is 11.2 µM in assay [1] and 20.8 µM in assay [1] (Mus musculus, MLE12, 30 h). Further, the IC50 in assay [2] (Mus musculus, MLE12, 24 h) was 16.4 µM; in assay [2], 10.5 µM; in assay [3], 0.00015 µM.
For the molecule `COc1ccc(NC(=O)[C@H]2CC[C@@H](n3c(=O)[nH]c4c(Br)cccc43)CC2)cn1` [Example 183, Cis-4-(4-bromo-2-oxo-2,3-dihydro-1H-1,3-benzodiazol-1-yl)-N-(6-methoxypyridin-3-yl)cyclohexane-1-carboxamide], the EC50 in assay [1] (Mus musculus, MLE12, 30 h) turned out to be 36.2 µM. For the same molecule, the IC50 in assay [2] (Mus musculus, MLE12, 24 h) is 17 µM; in assay [3], 0.174 µM.
Take `COc1cc(NC(=O)N2C3CCC2CC(n2c(=O)[nH]c4c(-c5ccc(CO)nc5)cccc42)C3)ccc1C` (stereo not drawn) [Example 92, 3-{4-[6-(Hydroxymethyl)pyridin-3-yl]-2-oxo-2,3-dihydro-1H-1,3-benzodiazol-1-yl}-N-(3-methoxy-4-methylphenyl)-(endo)-8-azabicyclo[3.2.1]octane-8-carboxamide]: in assay [1] (Mus musculus, MLE12, 30 h), the EC50 came to 38.8 µM. For the same molecule, the 50% inhibitory concentration (IC50) in assay [2] (Mus musculus, MLE12, 24 h) is 13.7 µM; in assay [3], 0.084 µM.
Take `COc1cc(NC(=O)[C@H]2CC[C@@H](n3c(=O)[nH]c4c(NC(=O)c5cc(C)on5)cccc43)CC2)ccc1C` [Example 300, 5-Methyl-N-{2-oxo-1-[cis-4-[(3-methoxy-4-methylphenyl)carbamoyl]cyclohexyl]-2,3-dihydro-1H-1,3-benzodiazol-4-yl}-1,2-oxazole-3-carboxamide]: the EC50 in assay [1] (Mus musculus, MLE12, 30 h) is 2.11 µM. Further, the IC50 came to 1.58 µM in assay [2] (Mus musculus, MLE12, 24 h) and 0.0099 µM in assay [3].
With `O=c1[nH]c2c(Br)cccc2n1[C@H]1CC[C@@H](C(=O)Nc2ccc3c(c2)OCCO3)CC1` [Example 197, Cis-4-(4-bromo-2-oxo-2,3-dihydro-1H-1,3-benzodiazol-1-yl)-N-(2,3-dihydro-1,4-benzodioxin-6-yl)cyclohexane-1-carboxamide], the EC50 in assay [1] (Mus musculus, MLE12, 30 h) was 30.2 µM. For the same molecule, the IC50 in assay [2] (Mus musculus, MLE12, 24 h) was 19.5 µM; in assay [3], 0.0389 µM.
For `CNCCOc1cccc2c1[nH]c(=O)n2[C@H]1CC[C@@H](C(=O)Nc2ccc(C)c(OC)c2)CC1` [Example 309, Cis-N-(3-methoxy-4-methylphenyl)-4-{4-[2-(methylamino)ethoxy]-2-oxo-2,3-dihydro-1H-1,3-benzodiazol-1-yl}cyclohexane-1-carboxamide], the EC50 in assay [1] (Mus musculus, MLE12, 30 h) worked out at 27.8 µM. Besides, the 50% inhibitory concentration (IC50) in assay [2] (Mus musculus, MLE12, 24 h) came out at 15.6 µM; in assay [3] it was 0.00326 µM.
As to `COc1cc(NC(=O)[C@H]2CC[C@@H](n3c(=O)[nH]c4c(C(=O)N5CCNC(C(F)(F)F)C5)cccc43)CC2)ccc1C` (stereo partly drawn) [Example 274, Cis-N-(3-methoxy-4-methylphenyl)-4-{2-oxo-4-[3-(trifluoromethyl)piperazine-1-carbonyl]-2,3-dihydro-1H-1,3-benzodiazol-1-yl}cyclohexane-1-carboxamide], the EC50 in assay [1] (Mus musculus, MLE12, 30 h) came out at 39 µM. Moreover, the IC50 in assay [2] (Mus musculus, MLE12, 24 h) turned out to be 18.1 µM; in assay [3], 0.0921 µM.
The corresponding values for `COc1cc(NC(=O)[C@H]2CC[C@@H](n3c(=O)[nH]c4c(C(=O)NCCN5CCOCC5)cccc43)CC2)ccc1C` [Example 272, N-[2-(Morpholin-4-yl)ethyl]-2-oxo-1-[cis-4-[(3-methoxy-4-methylphenyl)carbamoyl]cyclohexyl]-2,3-dihydro-1H-1,3-benzodiazole-4-carboxamide] are 35.7 µM, 27.1 µM and 0.00411 µM.
Taken in the same sequence, the figures for `COc1ncc(NC(=O)[C@H]2CC[C@@H](n3c(=O)[nH]c4c(Br)cccc43)CC2)cc1Cl` [Example 202, Cis-4-(4-bromo-2-oxo-2,3-dihydro-1H-1,3-benzodiazol-1-yl)-N-(5-chloro-6-methoxypyridin-3-yl)cyclohexane-1-carboxamide] were 11.6 µM, 7.97 µM and 0.0528 µM.
For the molecule `COc1cc(NC(=O)N2CCC(n3c(=O)[nH]c4c(-c5ccc(CO)nc5)cccc43)CC2)ccc1Cl` [Example 83, N-(4-Chloro-3-methoxyphenyl)-4-{4-[6-(hydroxymethyl)pyridin-3-yl]-2-oxo-2,3-dihydro-1H-1,3-benzodiazol-1-yl}piperidine-1-carboxamide], the EC50 in assay [1] (Mus musculus, MLE12, 30 h) amounted to 34.7 µM. In addition, the IC50 is 14 µM in assay [2] (Mus musculus, MLE12, 24 h) and 0.958 µM in assay [3].
Taken in the same sequence, the figures for `COc1cc(NC(=O)[C@H]2CC[C@@H](n3c(=O)[nH]c4c(C(=O)N5CCC[C@H]5CN5CCCC5)cccc43)CC2)ccc1C` [Example 271, Cis-N-(3-methoxy-4-methylphenyl)-4-{2-oxo-4-[(2S)-2-[(pyrrolidin-1-yl)methyl]pyrrolidine-1-carbonyl]-2,3-dihydro-1H-1,3-benzodiazol-1-yl}cyclohexane-1-carboxamide] were 9.45 µM, 4.65 µM and 0.056 µM.
Regarding `O=C(Nc1ccc(I)cc1)N1CCC(n2c(=O)[nH]c3c(-n4cccn4)cccc32)CC1` [Example 22, N-(4-iodophenyl)-4-[2-oxo-4-(1H-pyrazol-1-yl)-2,3-dihydro-1H-1,3-benzodiazol-1-yl]piperidine-1-carboxamide], in assay [1] (Mus musculus, MLE12, 30 h), the EC50 was determined as 52.7 µM. In addition, the IC50 is 13.8 µM in assay [2] (Mus musculus, MLE12, 24 h) and 0.848 µM in assay [3].
As for `Cc1ccc(NC(=O)[C@H]2CC[C@@H](n3c(=O)[nH]c4c(Br)cccc43)CC2)cc1O` [Example 221, Cis-4-(4-bromo-2-oxo-2,3-dihydro-1H-1,3-benzodiazol-1-yl)-N-(3-hydroxy-4-methylphenyl)cyclohexane-1-carboxamide], the EC50 in assay [1] (Mus musculus, MLE12, 30 h) was 15.2 µM. Besides, the IC50 in assay [2] (Mus musculus, MLE12, 24 h) worked out at 7.84 µM; in assay [3], 0.0272 µM.
In the case of `COc1cc(NC(=O)N2CCC(n3c(=O)[nH]c4c(Br)cccc43)CC2)ccc1Cl` [Example 77, 4-(4-Bromo-2-oxo-2,3-dihydro-1H-1,3-benzodiazol-1-yl)-N-(4-chloro-3-methoxyphenyl)piperidine-1-carboxamide], in assay [1] (Mus musculus, MLE12, 30 h), the EC50 was 21.2 µM. Moreover, the IC50 in assay [2] (Mus musculus, MLE12, 24 h) came to 7.4 µM; in assay [3], 0.358 µM.
`O=c1[nH]c2c(Br)cccc2n1[C@H]1CC[C@@H](C(=O)Nc2ccc(O)c(Cl)c2)CC1` [Example 201, Cis-4-(4-bromo-2-oxo-2,3-dihydro-1H-1,3-benzodiazol-1-yl)-N-(3-chloro-4-hydroxyphenyl)cyclohexane-1-carboxamide]: the EC50 in assay [1] (Mus musculus, MLE12, 30 h) was 18.2 µM. Moreover, the IC50 was 10.4 µM in assay [2] (Mus musculus, MLE12, 24 h) and 0.0351 µM in assay [3].

The values are drawn from US11970474B2, “Substituted benzodiazoles and use thereof in therapy” (THOMAS HELLEDAYS STIFTELSE FÖR MEDICINSK FORSKNING, priority 2018, dated 2024).
